Measured values: patent US8748491B2, “Dietary and pharmaceutical compositions containing tricyclic diterpenes and their derivatives and their uses” (priority 2006, dated 2014)

Columns and labels:
[1] = target: T1, human dopamine transporter (hDAT) (Homo sapiens, UniProt Q01959); assay: Inhibition of dopamine reuptake into transfected CHO-Ki/hDAT cells; assay type: cell-based; settings: 50 nM [3H]Dopamine
T1 construct: expressed in transfected cells; host or cells: CHO-Ki (so in the source)
Description: CHO-Ki/hDAT cells expressing the human dopamine transporter (hDAT) were plated before the assay. Cells (2×10^5/ml) were incubated with carnosic acid and/or vehicle in modified Tris-HEPES buffer, pH 7.1, at 25° C. for 20 minutes before addition of 50 nM [^3H]Dopamine for 10 minutes. Specific signal was determined in the presence of 10 μM nomifensine (dopamine reuptake inhibitor). Cells were then solubilised with 1% SDS lysis buffer. Reduction of [^3H]Dopamine uptake by 50 per cent or more (≧50%) relative to vehicle controls indicated significant inhibitory activity.

[2] = target: T2, Monoamine oxidase A (MAO-A) (Homo sapiens, UniProt P21397); assay: Monoamine oxidase A inhibition (p-tyramine substrate, H2O2/vanillic acid/HRP readout); assay type: biochemical
T2 sequence (P21397 1-527): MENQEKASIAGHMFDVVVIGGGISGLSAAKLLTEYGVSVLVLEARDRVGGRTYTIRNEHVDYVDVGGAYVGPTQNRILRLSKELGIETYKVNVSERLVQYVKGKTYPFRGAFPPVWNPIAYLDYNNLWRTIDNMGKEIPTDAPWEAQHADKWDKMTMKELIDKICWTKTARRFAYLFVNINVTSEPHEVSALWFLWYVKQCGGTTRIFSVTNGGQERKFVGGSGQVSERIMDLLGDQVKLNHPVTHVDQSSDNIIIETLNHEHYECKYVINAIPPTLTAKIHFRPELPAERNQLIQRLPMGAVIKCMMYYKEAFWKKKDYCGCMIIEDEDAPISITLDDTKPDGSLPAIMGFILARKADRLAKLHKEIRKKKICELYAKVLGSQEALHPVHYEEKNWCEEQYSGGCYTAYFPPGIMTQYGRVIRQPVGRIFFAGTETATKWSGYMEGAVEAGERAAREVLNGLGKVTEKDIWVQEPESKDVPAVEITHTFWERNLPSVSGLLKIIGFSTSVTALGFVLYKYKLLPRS
Description: (§1) The organic amines p-tyramine or benzylamine were used as substrates for the Monoamine oxidase A (MAO-A) and B (MAO-B) enzymes respectively. The H2O2 produced by this reaction was quantified by reaction with vanillic acid, catalysed by horse radish peroxidase (HRP).
(§2) The reactions were carried out in polystyrene microtitre plates. The MAO enzymes (final concentration 2 U/ml) were mixed with either p-tyramine (Sigma, final concentration 0.5 mM) or benzylamine (Sigma, final concentration 0.5 mM) as appropriate and the chromogenic solution (containing vanillic acid (Fluka), 4-aminoantipyrine (Fluka) and horse radish peroxidase (Sigma), final concentrations 0.25 mM, 0.125 mM and 1 U/ml respectively) in 0.2 M potassium phosphate buffer, pH 7.6. The reactions were followed in a microtitre plate absorbance reader e.g. Spectramax M5 (Molecular Devices Corporation). Absorbance readings at 495 nm were taken every 15 seconds for 40 minutes and the initial reaction velocities calculated by linear regression using SOFTmaxPro (Molecular Devices Corporation).
(§3) The effect of tricyclic diterpenes and their derivatives according to formula I on the monoamine oxidase enzymes was determined by their inclusion in the assay at a range of concentrations between 0.03 and 100 μM for 10 minutes prior to and during the incubation with substrate. To determine the effect of the compounds on the HRP catalyzed portion of the reaction, the MAO enzyme was replaced by H2O2 (Molecular Probes, final concentration 0.2 mM). The reactions containing MAO-A and MAO-B were both inhibited by tricyclic diterpenes and their derivatives according to formula I in a dose-dependent manner, whilst the control reaction, was unaffected. The measured IC50 values for inhibition of monoamine oxidase activity by carnosic acid, carnosic acid-12-methyl ether and 20-deoxo-carnosol are shown in Table 3.

[3] = target: T3, Monoamine oxidase B (MAO-B) (Homo sapiens, UniProt P27338); assay: Monoamine oxidase B inhibition (benzylamine substrate, H2O2/vanillic acid/HRP readout); assay type: biochemical
T3 sequence (P27338 1-520): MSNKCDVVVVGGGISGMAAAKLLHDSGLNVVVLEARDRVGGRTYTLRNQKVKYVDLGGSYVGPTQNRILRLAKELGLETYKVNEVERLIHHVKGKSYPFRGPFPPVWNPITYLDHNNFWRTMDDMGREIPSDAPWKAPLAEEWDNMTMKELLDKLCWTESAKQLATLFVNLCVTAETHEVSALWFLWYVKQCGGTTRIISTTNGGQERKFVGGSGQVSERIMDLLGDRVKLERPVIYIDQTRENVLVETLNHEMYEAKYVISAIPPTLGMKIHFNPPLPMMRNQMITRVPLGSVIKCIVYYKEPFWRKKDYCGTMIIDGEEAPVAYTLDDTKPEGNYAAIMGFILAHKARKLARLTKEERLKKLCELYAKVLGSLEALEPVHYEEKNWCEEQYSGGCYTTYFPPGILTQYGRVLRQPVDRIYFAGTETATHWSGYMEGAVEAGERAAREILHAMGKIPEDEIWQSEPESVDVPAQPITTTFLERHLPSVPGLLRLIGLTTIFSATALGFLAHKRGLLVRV
Description: as §1, §2, §3

[4] = test system: mouse; assay: Porsolt's forced swim test (FST); assay type: in vivo
Description: Mice were individually placed in cylinders (24.5 cm height, 19.5 cm internal diameter) containing 13.5 cm depth of water (22±0.5° C.) for a period of 6 minutes, behavioural parameters of interest being analysed during the final 4 minutes of the test, since the first 2 minutes include vigorous activity. Six cylinders were placed in a Perspex box, thus enabling six mice to be tested simultaneously.
Automatic monitoring of swim tests was enabled through the use of VideoMot2 software (TSE Technical and Scientific Equipment GmbH, Bad Homburg, Germany). All to experiments were observed via a black and white CCD camera. The rest:locomotion and stop:start thresholds, as determined by setting parameters in the software programme, determine the number of pixels which must change for a movement to be registered, enabling the software to determine whether a mouse is swimming or resting. The parameters which are automatically recorded include: rest time and locomotion time (ms), % rest and % locomotion, distance travelled (cm), speed of travel (cm/s) and number of stops.
Data were analysed by comparing treated groups with the untreated control group using Fisher's PLSD (StatView, SAS Institute Inc., Cary, N.C., USA)

T1 sequence (Q01959 whole entry): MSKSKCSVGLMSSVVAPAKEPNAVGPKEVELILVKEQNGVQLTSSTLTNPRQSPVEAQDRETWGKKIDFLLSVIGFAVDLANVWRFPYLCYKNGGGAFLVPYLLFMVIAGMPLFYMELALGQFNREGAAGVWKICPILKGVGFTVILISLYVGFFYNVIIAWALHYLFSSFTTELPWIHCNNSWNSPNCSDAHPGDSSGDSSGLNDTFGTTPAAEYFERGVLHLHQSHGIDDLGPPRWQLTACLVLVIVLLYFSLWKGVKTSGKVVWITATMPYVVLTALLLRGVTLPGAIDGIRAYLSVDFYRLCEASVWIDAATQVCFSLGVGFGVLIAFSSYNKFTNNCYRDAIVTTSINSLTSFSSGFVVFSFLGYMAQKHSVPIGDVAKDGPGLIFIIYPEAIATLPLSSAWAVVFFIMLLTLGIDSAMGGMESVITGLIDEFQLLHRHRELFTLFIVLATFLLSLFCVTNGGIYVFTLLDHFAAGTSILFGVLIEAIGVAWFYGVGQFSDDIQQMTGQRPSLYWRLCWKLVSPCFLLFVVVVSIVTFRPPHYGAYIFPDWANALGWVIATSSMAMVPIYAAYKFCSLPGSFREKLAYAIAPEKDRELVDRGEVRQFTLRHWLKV

Structure (SMILES): CC(C)c1cc2c(c(O)c1O)[C@@]1(C(=O)O)CCCC(C)(C)[C@@H]1CC2 [Carnosic acid, carnosic acid]
- IC50 [1]: 15 µM
- IC50 [2]: 4.4 ± 0.3 µM
- IC50 [3]: 8.6 ± 0.6 µM
- Duration of immobility (% change from control) ([4]; 10 mg/kg i.p., −30 min): −29%
- Duration of immobility (% change from control) ([4]; 20 mg/kg i.p., −30 min): −30%
- Duration of immobility (% change from control) ([4]; 30 mg/kg i.p., −30 min): −29%
- Duration of immobility (% change from control) ([4]; 200 mg/kg p.o., −24, −5, −1 h): −38%
- immobility behaviour (in words) ([4]; all doses tested, i.p. and p.o. administration): significantly reduced immobility behaviour
